In paper PMC3348654 (The Journal of Neuroscience, 2012):

Columns and labels:
[1] = C and EC metabolite levels in rat brain tissue after 10 days repeated dosing; format: in vivo; conditions: rats, following repeated dosing with GP or with Mo
[2] = test system: hippocampal slices from Tg2576 mice; test: Electrophysiological recordings; format: cell-based; conditions: 300 nM, 4–5 h, hippocampal slices from old Tg2576 mice, versus vehicle
[3] = test system: brain slices from wild type mice; test: Electrophysiological recordings in brain slices from age-matched wild type mice; format: cell-based; conditions: 300 nM
[4] = test system: CaMKII; test: Western blot of phospho- and total CaMKII in hippocampal slices; format: cell-based; conditions: 300 nM, 5 hours, hippocampal slices from old Tg2576 mice
[5] = test system: MEK1 (Ser222); test: Multiplex phospho-MEK immunoassay in hippocampal slices; format: cell-based; conditions: 300 nM, 5 hours, hippocampal slices from old Tg2576 mice
[6] = test system: CREB (Ser133); test: Phospho-CREB immunoassay in hippocampal slices; format: cell-based; conditions: 300 nM, 5 hours, hippocampal slices from old Tg2576 mice, versus vehicle
[7] = test system: Erk/MAP kinase 1/2 (Thr185/Tyr187); test: Multiplex phospho-Erk1/2 immunoassay in hippocampal slices; format: cell-based; conditions: 300 nM, 5 hours, hippocampal slices from old Tg2576 mice
[8] = test system: PKA; test: PKA activity assay and PKA IIa protein content in hippocampal slices; format: cell-based; conditions: 300 nM, 5 hours, hippocampal slices from old Tg2576 mice

Row | phosphorylation status of Erk1/2 (Thr185/Tyr187) [7] | SMILES | free C and EC contents in the brain [1] | basal synaptic transmission in the CA1 region [2] | LTP [3] | basal synaptic transmission [3] | level of [Thr286]-phosphorylated, active CaMKII [4] | level of total CaMKII [4] | phosphorylation status of MEK [5] | levels of [Ser133]-phosphorylated, active CREB [6] | PKA (PKA activity assay and PKA IIa protein content) [8]
1 |  | Oc1cc(O)c2c(c1)OC(c1ccc(O)c(O)c1)C(O)C2 (single isomer, unassigned; (+)) [C, (+)-catechin] | trace contents (below levels for quantification) |  |  |  |  |  |  |  | 
2 | did not modulate | COc1cc([C@H]2Oc3cc(O)cc(O[C@@H]4O[C@H](C(=O)O)[C@@H](O)[C@H](O)[C@H]4O)c3C[C@H]2O)ccc1O [3’-O-Me-EC-Gluc, 3’-O-methyl-epicatechin-5-O-β-glucuronide] |  | significantly increased | did not have any effect | did not have any effect | significantly increased | without influencing | did not modulate | significantly increased | nor did it affect
3 |  | Oc1cc(O)c2c(c1)O[C@H](c1ccc(O)c(O)c1)[C@H](O)C2 [EC, (−)-epicatechin] | trace contents (below levels for quantification) |  |  |  |  |  |  |  | 
